Experimental data published in patent US12433962B2, “Probes for imaging b-amyloid and inhibition of β-amyloid aggregation” (The Hong Kong University of Science and Technology, priority 2021, dated 2025).

Experiments:
PC12 cell = assay: MTT cytotoxicity assay in PC12 cells; type: cell-based
Procedure: FIG. 7 depicts (A) Cytotoxicity towards […] PC-12 cells of Aβ monomer under 24 h and 48 h incubation. (B) Cytotoxicity of Aβ fibrils under 24 h and 48 h incubation. […] (D) Cell viability of different concentrations of DNTPH towards PC-12 cells under 24 h and 48 h incubation.

[1] = Solubility in solvents and water; type: physicochemical
[2] = Emission and AIE properties in solvent mixtures; type: physicochemical
Source text: FIG. 2 depicts (A) Normalized absorption spectra of DCTB, DCPH and DNTPH in DMSO solution; (B) Normalized fluorescence (PL) spectra of DCTB, DCPH and DNTPH in aggregates; (C) Plot of the changes in fluorescence intensity with different water fraction (fw, in volume percentage, vol %), where I0 and I are the maximal fluorescence intensity recorded before and after adding water into the THF solution of DCTB. (D) Plot of the changes in fluorescence intensity with different toluene fractions (ft, in volume percentage, vol %), where I0 and I are the maximal fluorescence intensity recorded before and after adding toluene into the DMSO solution of DCPH and DNTPH respectively. [AIE dyes]=10 μM.
DCTB and DCPH were synthesized and their structure-activity relationship was investigated (FIG. 1).
However, to achieve a more obvious emission enhancement with low background signals, the TICT and AIE properties can be further modified. […] DNTPH was non-emissive in aqueous solution, and its NIR fluorescence at 683 nm was continuously intensified until the volume fraction of toluene (ft) […] was increased to about 40-fold (FIG. 2D). In addition, initial weedy fluorescence intensity of DNTPH in aqueous solution and the outstanding emission enhancement behavior in the aggregated state made it an ideal candidate for detecting protein fibrillogenesis, like Aβ aggregates.

Aβ42 fibril = Aβ42 fibril (Homo sapiens, UniProt P05067); assay: Fluorescent response upon binding to Aβ42 fibrils in phosphate buffer; conditions: titrated with Aβ42 fibril in phosphate buffer; dye 1 μM
Aβ42 fibril, sequence (P05067 672-713 limits assumed): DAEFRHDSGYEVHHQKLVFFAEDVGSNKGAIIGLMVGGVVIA
Procedure: FIG. 4 depicts determination of the binding constant of DNTPH for Aβ42 aggregates. (A) Plot of the PL intensity as a function of the concentration of DNTPH in the presence of Aβ42 aggregates (3 μM) in PBS solution (pH=7.4); (B)Response time of DNTPH binding to Aβ42 aggregates. […] (D) Ultrahigh S/N ratio of DNTPH toward Aβ42 aggregates compared to the background signals in PBS and that towards BSA.
It was investigated whether DNTPH has a fluorescent response upon binding to Aβ aggregates. When DNTPH was titrated with the Aβ42 fibril in phosphate buffer, a strong and progressive increase (up to about 18-fold) in red fluorescence intensity concomitant was observed, which took ˜30 min to reach a plateau. Without wishing to be bound by theory, it is believed that DNTPH is capable of binding hydrophobic surfaces in aggregated amyloid fibrils with the help of the binding unit, resulting in the decrease of conformational freedom and rotational restriction. […] That is because these three probes show high background signals, which results in low S/N ratio even with a decent fluorescent response to testing objects.

Compound: Aβ monomer: monomeric amyloid-β peptide
- cell death (PC12 cell; 20 μM, 48 h incubation): 50%
- cytotoxicity (PC12 cell; 5-20 μM, less than 24 h of exposure): No significant cytotoxicity

Compound: CCN(CC)c1ccc2cc(C=C(C#N)c3nc4ccccc4s3)c(=O)oc2c1 [DCTB]
- solubility [1]: soluble in THF but aggregated in water
- emission maximum [2]: 601 nm
- AIE effect, fluorescence intensity increase ([2]; THF/water, water fraction (fw) 70%): less than 2 fold

Compound: CCN(CC)c1ccc2cc(C=Cc3cc[n+](CCO)cc3)c(=O)oc2c1.[Br-] [DCPH]
- solubility [1]: more soluble in water and polar solvent
- emission maximum [2]: 690 nm
- PL intensity enhancement in aggregates compared with DMSO solution ([2]; DMSO/toluene mixtures, 99% toluene fraction (ft)): about 2 fold

Compound: Cc1ccc2c(c1)sc(-c1ccc(N(C)C)cc1)[n+]2C.[Cl-] [ThT, thioflavin T]
- increase in fluorescence intensity (fluorescent response) to Aβ42 fibril (Aβ42 fibril): 5 fold
